Results reported in patent publication US8642656B2, “Calixarene-based peptide conformation mimetics, methods of use, and methods of making” (priority 2004, dated 2014).
“Also recorded” adds a separate entry of the source.

Tests used:
[1] = system: MA148 human ovarian carcinoma; test: Proliferation of MA148 tumor cells; type: cell-based; conditions: read-out: IC50 against MA148 tumor cells
HUVEC = test: EC migration, wound healing assay; type: cell-based, human; conditions: 25 μM
Protocol: EC migration was measured in the wound healing assay. HUVEC were cultured in triplicate on a 1-mg/ml fibronectin coat in a 24-well tissue culture plate. Cells were grown for 3 days until confluence. When confluent, a wound was made in the well, using a blunt glass pipette. The medium was replaced with medium containing 10 ng/ml bFGF with or without 25 μM compound and at 0, 2, 4, 6, and 8 hours, the wound width was measured at four different predefined places. Photographs were made using an inverted microscope and a Contax 167 MT 35 mm camera.

[2] = system: MA148 human ovarian carcinoma; test: MA148 tumor growth model in athymic mice; type: in vivo; conditions: for tumor growth inhibition: MA148, end of 28 days; for MA148 tumor growth (in words): tumor-bearing mice
Protocol: (§1) Female athymic nude mice (nu/nu, 5-6 weeks old) were used. These mice were purchased from the National Cancer Institute and allowed to acclimatize to local conditions for at least one week. Animals were given water and standard chow ad libitum, and were kept on a 12-hour light/dark cycle. All experiments were approved by the University of Minnesota Research Animal Resources ethical committee. Mice were randomized and split into three groups: 1) human serum albumin (10 mg/kg/day), 2) βpep-25 (10 mg/kg/day) and 3) peptide mimetic agent (5 mg or 10 mg/kg/day). Test compounds were diluted in DMSO and administered using osmotic mini-pumps (Durect, Cupertino, Calif.). Exponentially growing MA148 human ovarian carcinoma cells, kindly provided by Prof. Ramakrishnan (R. P. Dings et al., Cancer Res., 63, 382-385 (2003)) or B16 mouse melanoma cells were cultured in RPM1 1640 medium (Life Technologies, Grand Island, N.Y.). This medium was supplemented with 10% fetal bovine serum and 1% penicillin/streptomycin (Cellgro, Mediatech, Washington, D.C.) at 37° C and 5% CO2. One hundred microliters (100 μL) of this tumor cell suspension (2×10^7 cells/ml) was then injected subcutaneously into the right flank of each mouse. Pumps were implanted into the left flank of mice for subcutaneous administration of compound over a 28-day treatment span.
Two variants of this model were used: prevention and intervention. For the prevention variant, treatment was initiated at the time of inoculation with MA148 cells. For the intervention variant, tumors were allowed to grow to an average size of 50 mm^3 (usually day 7 post inoculation) before treatment was initiated. With either variant, animals were randomized prior to the initiation of treatment. Treatment was administered via osmotic mini-pumps (Durect, Cupertino, Calif.), which were implanted subcutaneously in the left flank of mice. Concentrated solutions of βpep-25 or DBF analogs were formulated such that the 28-day treatment period would be covered by implantation of a single pump. In each study, control groups of animals were administered either PBS or PBS containing human serum albumin.
Female athymic nude mice (nu/nu, 5-6 weeks old) or C57BL/6 male mice were purchased from the National Cancer Institute and allowed to acclimatize to local conditions for at least one week. Animals were provided water and standard chow ad libitum, and were kept on a 12 hour light/dark cycle. All experiments followed protocols approved by the University of Minnesota Research Animal Resources Ethical Committee. Exponentially growing MA148 human ovarian carcinoma cells, kindly provided by Prof. Ramakrishnan (Dings et al., Cancer Res 63, 382-385 (2003)), and B16F10 murine melanoma cells, kindly provided by Prof. Fidler, were cultured in RPM1 1640 medium (Life Technologies, Grand Island, N.Y.) (van der Schaft, et al., Faseb J 16, 1991-1993 (2002)). This medium was supplemented with 10% fetal bovine serum and 1% penicillin/streptomycin (Cellgro, Mediatech, Washington, D.C.) at 37° C. and 5% CO2. 100 μL of this tumor cell suspension (2×10^7 MA148 cells/ml and 2×10^6 B16F10 cells/ml) was then injected subcutaneously into the right hind flank of each mouse (athymic or C57BL/6, respectively).
Tumors were allowed to grow to an average size of at least 50 mm^3 before treatment was initiated, and animals were randomized prior to the initiation of treatment. Treatment was administered in one of two ways: s.c. from osmotic mini-pumps, and i.p. injection. Osmotic mini-pumps (Durect, Cupertino, Calif.) were implanted subcutaneously in the left flank of mice, and concentrated solutions of calixarene analogs or βpep-25 were formulated in PBS containing 30% (v/v) DMSO such that the 14-day or 28-day treatment period would be covered by implantation of a single pump. In each study, control groups of animals were administered either PBS (30% DMSO v/v) or PBS containing human serum albumin to control for protein content. […]

[3] = Toxicity assays in tumor-bearing mice: behavior, body weight, organ morphology; type: in vivo; conditions: for signs of toxicity (behavior, weight gain, hematocrit), in words: all in vivo tumor experiments
Protocol: As an indirect measurement of general toxicity, body weights of mice were monitored twice weekly, using a digital balance (Ohaus Florham, N.J.). To determine hematocrit levels, blood samples were extracted by tail vein bleedings one day after terminating treatment, and blood was collected in heparinized micro-hematocrit capillary lubes (Fisher Pittsburgh, Pa.). Samples were spun down for 10 minutes in a micro-hematocrit centrifuge (Clay-Adams; NY), and the amount of hematocrit was determined using an international microcapillary reader (IEC; Needham, Mass.).

[4] = system: leukocytes in tumors of tumor bearing mice; test: Leukocyte infiltration into tumors, anti-CD45 and anti-CD8 staining; type: in vivo; conditions: compared with βpep-25; FIG. 4
Protocol: as §1, with “One hundred microliters (100 μL) of this tumor cell suspension (2×10^7 cells/ml) was then injected subcutaneously into the right flank of each mouse. Pumps were implanted into the left flank of mice for subcutaneous administration of compound over a 28-day treatment span.” left out
Similar size tumors without apparent widespread necrosis were embedded in tissue freezing medium (Miles Inc.; Elkart, Ind.) and snap frozen in liquid nitrogen. […] The vessel density and architecture was quantified as described earlier [Griffioen et al., Biochemical Journal 354, 233-242 (2001)]. […]

[5] = 10 mg/kg/day s.c. osmotic mini-pump

| Molecule | IC50 [1] | effect on EC migration, wound assay (in words) (HUVEC) | tumor growth inhibition ([2]; 2.7 mg/kg/day s.c. osmotic mini-pump) | tumor growth inhibition [2, 5] | MA148 tumor growth (in words) ([2]; trifluoroacetic acid salt) | drop of body weights during treatment ([3]; B16 model, i.p. administration) | signs of toxicity (behavior, weight gain, hematocrit), in words [3] | leukocyte infiltration into tumors (in words) [4] | tumor growth inhibition ([2]; 2.4 mg/kg/day s.c. osmotic mini-pump) | MA148 tumor growth (in words) [2] | MA148 tumor growth (in words) ([2]; listed as KM0118 (40)) |
| --- | --- | --- | --- | --- | --- | --- | --- | --- | --- | --- | --- |
| 5,11,17,23-Tetra-tert-butyl-25,27-bis(2-guanidinoethoxy)-26,28-dihydroxy calix[4]arene trifluoroacetic acid salt [Compound 27] | 3 µM | as effective as βpep-25 and more effective than 40 | about 65% | about 65% | inhibits MA148 tumor growth; also recorded: significantly inhibited | about 5% | did not generally show signs of toxicity | clearly more effective at increasing leukocyte infiltration into tumors than βpep-25 |  |  |  |
| CN(C)CCNC(=O)COc1c2cccc1Cc1cccc(c1OCC(=O)NCCN(C)C)Cc1cccc(c1OCC(=O)NCCN(C)C)Cc1cccc(c1OCC(=O)NCCN(C)C)C2 [Compound 40] | 1 µM |  |  | 81% |  |  | did not generally show signs of toxicity | clearly more effective at increasing leukocyte infiltration into tumors than βpep-25 | about 65% | inhibition of MA148 tumor growth | significantly inhibited |
